{"source": "patent US8852559B2", "about": "(Colgate-Palmolive Company, priority 2009, dated 2014)", "key": {"[1]": {"test": "Decomposition of Compound 1 in buffered vs unbuffered pH 7.2 formulation", "format": "physicochemical", "settings": "phosphate buffered vs unbuffered formulation, pH 7.2, over 14 days", "experimental": "Two pH 7.2 formulations of Compound 1 are prepared, one with phosphate buffer, one without, and the decomposition of Compound 1 is measured over 14 days. While measurable decomposition is seen in both formulations, the slope of the rate of decomposition Compound 1 in the buffered formulation is decreased by 3.3 fold compared to that of the unbuffered formulation."}, "biofilm": {"tested_on": "biofilm", "test": "Biofilm disruption assay", "format": "cell-based", "experimental": "The solution of 0.5% AN0128.0.75% SLS. 50% Fluraflo L4370 in water is then tested in a biofilm disruption assay.\nA solution of 2% Compound 1 in PEG 300 is diluted 1:1 with 2% SLS in water to produce a solution composed of 1% Compound 1, 1% SLS, 50% PEG 300 in water which is then tested in a biofilm disruption assay.\nThe properties of Compound 1 in conjunction with other excipients are further evaluated by diluting a solution of Compound 1 in PEG 300 into other solvents such as propylene glycol and glycerin at varying ratios. A solution containing 1% Compound 1 in 19% PEG 300 and 80% propylene glycol is clear. This solution is then diluted 1:1 with 1% SLS in water to produce a solution composed of 0.5% Compound 1, 0.5% SLS, 9.5% PEG 300 and 40% propylene glycol in water which is then tested in the biofilm disruption assay. The percent reduction achieved versus the negative control is 80%. […] Similar results are achieved with PEG and glycerin."}, "[2]": {"test": "Stability of Compound 1 formulations with and without antioxidants", "format": "physicochemical", "excerpt": "The stability of three formulations of Compound 1 are compared, the formulations being identical except that one is without any antioxidants, one contains α-tocopherol, and the third contains sodium ascorbylphosphate."}, "[3]": {"format": "physicochemical", "excerpt": "The poor solubility of Compound A presents some formulation challenges. Its solubility in water is less than 100 ppm, and its solubility in flavor oils (often used to solubilize actives) is less than 0.5%. We have discovered that co-polymers of polyethylene glycol and polypropylene glycol are able to solubilize Compound 1. Fluraflo L4370 (BASF) is able to solubilize 1% Compound 1 (% w/w). It is necessary to stir the solution over low heat to fully solubilize the active. The resulting solution is cloudy, reflecting the nature of the Fluraflo L4370 itself. The solution of 1% Compound 1 in Fluraflo L4370 is diluted 1:1 with 1.5% SLS in water to produce a clear solution, composed of 0.5% AN0128, 0.75% SLS, 50% Fluraflo L4370 in water Similar results are achieved using Fluracare L1220.\nWe also discovered that Tri-block Co-polymer Surfactant F127 is able to further enhance solubilization of Compound 1. In experimental liquid dentifrice formulas (Table 3), Compound 1 is not completely soluble over time, as evidenced by precipitation and crystallization over time. After the addition of 5% F127, experimental liquid dentifrice formulas (Table 4) remain clear. Therefore, Tri-block Co-polymer Surfactant F127 is able to further solubilize Compound 1 and is suitable for use in formulations.\nWe further discovered that low molecular weight polyethylene glycol 300 (PEG 300)(Dow Chemical Company) solubilizes 10% Compound 1 (% w/w). It is necessary to stir the solution over low heat to fully solubilize the active. The resulting solution is clear with a slight yellow tint due to the color of Compound 1. […] Therefore, we conclude that solvents containing oligomers and/or polymers of ethylene glycol are capable of solubilizing Compound 1 and are suitable for formulation.\nThe properties of Compound 1 in conjunction with other excipients are further evaluated by diluting a solution of Compound 1 in PEG 300 into other solvents such as propylene glycol and glycerin at varying ratios. A solution containing 1% Compound 1 in 19% PEG 300 and 80% propylene glycol is clear. […]"}}}
{"smiles": "Cc1ccc([B-]2(c3ccc(C)c(Cl)c3)OC(=O)c3ncccc3[OH+]2)cc1Cl", "note": "[Compound 1]", "values": [{"measurement": "decrease of slope of the rate of decomposition of Compound 1", "setting": "[1]", "result": 3.3, "unit": "fold"}, {"measurement": "percent reduction versus the negative control", "setting": "biofilm; 0.5% AN0128, 0.75% SLS, 50% Fluraflo L4370 in water", "result": 65, "unit": "%"}, {"measurement": "percent reduction versus the negative control", "setting": "biofilm; 0.5% Compound 1, 0.5% SLS, 9.5% PEG 300 and 40% propylene glycol in water", "result": 80, "unit": "%"}, {"measurement": "percent reduction versus the negative control", "setting": "biofilm; 1% Compound 1, 1% SLS, 50% PEG 300 in water", "result": 76, "unit": "%"}, {"measurement": "decomposition in formulation", "setting": "[2]; formulation containing sodium ascorbylphosphate vs without any antioxidants", "result": "significantly reduced"}, {"measurement": "decomposition in formulation", "setting": "[2]; formulation containing α-tocopherol vs sodium ascorbylphosphate formulation", "result": "even less"}, {"measurement": "amount solubilized in Fluraflo L4370", "setting": "[3]", "result": 1, "unit": "% w/w"}, {"measurement": "amount solubilized in polyethylene glycol 300", "setting": "[3]", "result": 10, "unit": "% w/w"}, {"measurement": "solubility in various oils", "setting": "[3]", "result": "less than 0.5%"}]}
